Results published in patent USRE37770E1, “Treatment of skin conditions by use of PPARα activators” (The Regents of the University of California, priority 1997, dated 2002).

Tests used:
[1] = system: full-thickness flank skin from the fetal rats; test: Transepidermal water loss (TEWL) of fetal rat skin explants in organ culture (barrier function); type: cell-based, Sprague-Dawley rats; conditions: for effect on TEWL / barrier function: 50 μM; for EC50: Rattus norvegicus, read-out: concentration of half-maximal effect on barrier development (TEWL); for EC50 / concentration of maximal effect on barrier development (TEWL): dose response, FIGS. 4a-4c
Protocol: Timed pregnant Sprague-Dawley rats (plug date=day 0) were obtained from Simonsen (Gilroy, Calif., USA) and fetuses were delivered prematurely on day 17. Transepidermal water loss (TEWL) was measured in excised full-thickness flank skin from the fetal rats after various times in culture. The skin explants were placed dermis-side down onto collagen membrane inserts (3μ pore size) in medium M-199 (serum-free), and submerged, and the lateral edges and dermal surface were sealed with petrolatum, such that water loss occurred only through the epidermal surface. Explant samples were weighed hourly, at ambient temperature (24±3° C.) and humidity (40±5%), over 6 hours using a Cahn balance (sensitivity 0.001 mg). TEWL levels are reported as milligrams of water lost per square millimeter of epidermal surface per hour. Fatty acids and clofibrate (p-chlorophenoxyisobutyric acid) were added to the medium bound to 0.5% (weight/volume) bovine serum albumin (BSA). Isoprenoids and oxysterols were added in ethanol (≦0.1%) and juvenile hormone III was added as a dimethylsulfoxide (DMSO) solution (≦0.1%). Control explants were incubated in the presence of the appropriate vehicle (≦0.1% DMSO or ethanol, and/or ≦0.5% BSA). Skin explants from gestational day 17 rats were incubated in the presence of either various activators or vehicle, and transepidermal water loss was measured after two days. The activators and the concentrations at which they were used were as follows: […]

transglutaminase mRNA = test: Transglutaminase mRNA in keratinocytes by Northern Blot; type: cell-based, Human; conditions: low calcium (0.03 mM), 24 hours, 10 μM
Protocol: (§1) Human keratinocyte cells were incubated in culture containing calcium at a concentration of 0.03 mM Ca^++ (a level that is too low to induce differentiation). Also included in the culture medium were clofibrate at 400 μM or ETYA at 10 μM and 20 μM, while separate cell cultures were maintained as controls with neither clofibrate nor ETYA. The production of mRNA for both involucrin and transglutaminase was measured at intervals over a 48-hour time period (0, 6, 12, 24, and 48 hours) by Northern Blot analysis. In each case, the lighter bars represent the control cells and the darker bars the cells incubated in the clofibrate-containing medium. The degree of mRNA generated is expressed as a percent of the control at zero hours.
(§2) Human epidermis was isolated from newborn foreskins and keratinocytes were plated in serum-free keratinocyte growth medium (“KGM”; Clonetics, San Diego, Calif. USA), using conventional techniques. Cells were treated with either the test compounds in vehicle or vehicle alone (<0.1% ethanol) for 24 or 48 hours. The test compounds were obtained from Sigma Chemical Co. (St. Louis. Mo. USA) and were stored as 15 mM stock solutions at −20° C. Mevalonate was solubilized in sterile water.
(§3) Total RNA was isolated by using TRIZOL (Sigma Chemical Co.), following the manufacturer's protocol. Ethanol-precipitate RNA pellets were suspended in sterile, diethylpyrocarbonate (DEPC)-treated water, and RNA was quantified by absorbance at 260 nm using the 260/280 nm ratio as an index of purity. RNA (15 μg per sample) was size fractionated through a 1% agarose gel containing 2.2 M formaldehyde. RNA integrity was visualized following acridine orange staining of the gel following electrophoresis. The RNA was transfered to a nylon membrane that was subsequently baked at 80° C. for 2 hours. Blots were hybridized with the appropriate ^32p-labeled probe overnight at 65° C. Washes were then performed in a solution containing 0.1% SSC and 0.1% sodium dedecyl sulfate (SDS) for 20 minutes at room temperature, followed by a 20-minute wash at 65° C. Autoradiography was performed at −70° C. Blots were probed with β-actin to confirm equal loading. Appropriate bands were quantified by densitometry.
(§4) Northern blot analyses were performed on keratinocytes maintained in low calcium (0.03 mM) and incubated for 24 hours in the presence of vehicle alone (<0.1% ethanol) or vehicle containing 25-hydroxycholesterol (10 μM), 22(R)-hydroxycholesterol (10 μM) cholesterol (10 μM), or mevalonate (500 μM) (individually). The mRNA levels of involucrin (“INV”) and transglutaminase (“TG'ase”) are shown in the bar graph of FIG. 14a, the INV indicated by clear bars and the TG'ase by shaded bars, both with error limits shown.

involucrin mRNA = test: Involucrin mRNA in keratinocytes by Northern Blot; type: cell-based, Human; conditions: low calcium (0.03 mM), 24 hours, 10 μM
Protocol: as §1, §2, §3, §4

[2] = system: Skin explants from gestational day 17 rats; test: Light and electron microscopy of fetal rat skin explants (epidermal maturation); type: cell-based; conditions: 48 hours
Protocol: Samples for light microscopy were fixed in modified Karnovsky's solution, plastic-embedded, and 0.5 μm sections were stained with toluidine. Samples for electron microscopy were minced into 1 mm^3 pieces, fixed in modified Karnovsky's fixative, and processed. Sections were stained with uranyl acetate and lead citrate, post-fixed in ruthenium tetroxide, and examined using a Zeiss 10A electron microscope.
Explants incubated in various media woe examined by light microscopy. The incubation di included control medium (containing no activators) and various media individually containing 300 μM clofibrate, 100 μM juvenile hormone III, 300 μM oleic acid, 30 μM linoleic acid, 50 μM farnesol, and various concentrations of 9-cis-retinoic acid, all-trans-retinoic acid, and 1,25-dihydroxy vitamin D3.
Observations were then made of the ultrastructural maturation of the outer epidermis in explants that had been incubated in the various media and then post-fixed in ruthenium tetroxide. Media identical to those of the preceding paragraph were used, excluding the retinoic acid-containing and 1,25-dihydroxy vitamin D3-containing media.

## CCCCC[C@H](O)/C=C/[C@H]1C(=O)C=C[C@@H]1C/C=C\CCCC(=O)O [prostaglandin J2]
[1]; 10 μM, two days
  effect on TEWL / barrier development: had no effect

## CC(C)=CCC/C(C)=C/CC/C(C)=C/CC/C=C(\C)CC/C=C(\C)CCC=C(C)C [squalene]
[1]; two days
  effect on TEWL / barrier function: neither mevalonate at 200 μM, 25-hydroxy cholesterol at 50 μM), squalene at 50 μM, geranylgeraniol at 50 μM, cis-farnesol at 50 μM, nor nerolidol at 100 μM significantly affected barrier function

## CC(C)=CCC/C(C)=C/CC/C(C)=C/CC/C(C)=C/CO [geranylgeraniol]
[1]; two days
  effect on TEWL / barrier function: neither mevalonate at 200 μM, 25-hydroxy cholesterol at 50 μM), squalene at 50 μM, geranylgeraniol at 50 μM, cis-farnesol at 50 μM, nor nerolidol at 100 μM significantly affected barrier function

## CC(C)CC[C@H](O)[C@@H](C)[C@H]1CC[C@H]2[C@@H]3CC=C4C[C@@H](O)CC[C@]4(C)[C@H]3CC[C@]12C [22(S)-hydroxycholesterol]
Transglutaminase mRNA
  transglutaminase (TG'ase) mRNA level compared to the vehicle alone: No effect
Involucrin mRNA
  involucrin (INV) mRNA level compared to the vehicle alone: No effect

## C=CC(C)(O)CCC=C(C)CCC=C(C)C (centres unmarked) [nerolidol]
[1]; 100 μM, two days
  effect on TEWL / barrier formation: neither mevalonate at 200 μM, 25-hydroxy cholesterol at 50 μM), squalene at 50 μM, geranylgeraniol at 50 μM, cis-farnesol at 50 μM, nor nerolidol at 100 μM significantly affected barrier function

## CCCCCCCC/C=C\CCCCCCCC(=O)O [oleic acid]
[1]
  EC50: ~250 µM
  concentration of maximal effect on barrier development (TEWL): approximately 500 μM
[2]; 300 μM
  light microscopy of the epidermis: had both a multi-layered stratum granulosum and a stratum corneum

## CCCCC/C=C\C/C=C\CCCCCCCC(=O)O [linoleic acid]
[1]
  EC50: ~12.5 µM
  concentration of maximal effect on barrier development (TEWL): approximately 30 μM
[1]; explants incubated in 300 μM for two days, p<0.005, n=8
  effect on TEWL: markedly decreased the TEWL
[2]; 30 μM
  light microscopy of the epidermis: had both a multi-layered stratum granulosum and a stratum corneum

## CC(C)=CCC/C(C)=C\CC/C(C)=C\CO [cis-farnesol]
[1]; two days
  effect on TEWL / barrier function: neither mevalonate at 200 μM, 25-hydroxy cholesterol at 50 μM), squalene at 50 μM, geranylgeraniol at 50 μM, cis-farnesol at 50 μM, nor nerolidol at 100 μM significantly affected barrier function
